Results as given in patent publication US8372967B2, “Compounds and methods for modulating expression of GCCR” (Isis Pharmaceuticals, Inc., priority 2006, dated 2013).
Strand notation (5' to 3'): a small letter for the sugar, then the base; units joined by * are phosphorothioate-linked, units joined directly phosphodiester-linked; [ ] holds rarer units or linkages, { } end groups; capitals alone tell only the bases. e = 2'-O-(2-methoxyethyl) (MOE); [5mC] = 5-methylcytosine; d = 2'-deoxy (DNA)

How the values were obtained:
[1] = test system: PTP1B mRNA; test: Dose response for human PTP1B in HuVEC cells, PPS 198 and PPS 3000 (Tables 86, 87); format: cell-based
Description: Human vascular endothelial (HuVEC) cells were plated at a density of 5000 cells per well and treated as described herein with nM concentrations of short antisense compound as indicated in Table 86. After the treatment period, RNA was isolated from the cells and PTP1B mRNA levels were measured by quantitative real-time PCR, as described herein. PTP1B mRNA levels were adjusted according to total RNA content as measured by RIBOGREEN®. Two different human PTP1B primer probe sets were used to measure mRNA levels. Results with Primer Probe Set (PPS) 198 are shown in Table 86, and results with Primer Probe Set (PPS) 3000 are shown in Table 87. Results are presented as percent inhibition of PTP1B mRNA expression relative to untreated control cells.

[2] = test system: PCSK9 mRNA; format: cell-based, human; details: Hep3B cells, 100 nM, relative to untreated control cells; for % Inhib: 0 = no reduction observed
Description: When cells reached appropriate confluency, they were treated with oligonucleotide using LIPOFECTIN® as described. […] Cells were treated and data were obtained in duplicate or triplicate. […] Cells were harvested 16-24 hours after oligonucleotide treatment.
Prior to quantitative PCR analysis, primer-probe sets specific to the target gene being measured were evaluated for their ability to be “multiplexed” with a GAPDH amplification reaction. After isolation the RNA is subjected to sequential reverse transcriptase (RT) reaction and real-time PCR, both of which are performed in the same well. RT and PCR reagents were obtained from Invitrogen Life Technologies (Carlsbad, Calif.). […] The RT reaction was carried out by incubation for 30 minutes at 48° C. Following a 10 minute incubation at 95° C. to activate the PLATIN 9M® Taq, 40 cycles of a two-step PCR protocol were carried out: 95° C. for 15 seconds (denaturation) followed by 60° C. for 1.5 minutes (annealing/extension).
170 μL of RiboGreen® working reagent (RiboGreen® reagent diluted 1:350 in 10 mM Tris-HCl, 1 mM EDTA, pH 7.5) was pipetted into a 96-well plate containing 30 μL purified cellular RNA. The plate was read in a CytoFluor® 4000 (PE Applied Biosystems) with excitation at 485 nm and emission at 530 nm.
Short antisense compounds targeted to a PCSK9 nucleic acid were tested for their effects on PCSK9 mRNA in vitro. The Isis No, gapmer motif and SEQ ID NO of each short antisense compound are shown again in Table 75. Cultured Hep3B cells were treated with 100 nM of short antisense compound. 5-10-5 MOE gapmers targeted to a PCSK9 nucleic acid were used as positive controls. After the treatment period, RNA was isolated from the cells and PCSK9 mRNA levels were measured by quantitative real-time PCR, as described herein. PCSK9 mRNA levels were adjusted according to total RNA content as measured by RIBOGREEN®. Results are presented in Table 75 as percent inhibition of PCSK9 (% Inhib), relative to untreated control cells.

| Substance | % Inhib [2] | % Inhibition Range [2] | other results |
| --- | --- | --- | --- |
| 398105 (eT*eG*d[5mC]*dA*d[5mC]*dA*dG*dG*d[5mC]*dA*dG*dG*eT*eT) [compound 398105] | – | – | % Inhibition ([1]; PPS 198, 1.11 nM): 0%; % Inhibition ([1]; PPS 198, 3.33 nM): 25%; % Inhibition ([1]; PPS 198, 10.0 nM): 79%; % Inhibition ([1]; PPS 198, 30.0 nM): 90%; % Inhibition ([1]; PPS 3000, 1.11 nM): 0%; % Inhibition ([1]; PPS 3000, 3.33 nM): 35%; % Inhibition ([1]; PPS 3000, 10.0 nM): 79%; % Inhibition ([1]; PPS 3000, 30.0 nM): 93% |
| 398112 (e[5mC]*eA*dG*d[5mC]*d[5mC]*dT*dG*dG*d[5mC]*dA*d[5mC]*d[5mC]*eT*eA) [compound 398112] | – | – | % Inhibition ([1]; PPS 198, 1.11 nM): 1%; % Inhibition ([1]; PPS 198, 3.33 nM): 10%; % Inhibition ([1]; PPS 198, 10.0 nM): 73%; % Inhibition ([1]; PPS 198, 30.0 nM): 93%; % Inhibition ([1]; PPS 3000, 1.11 nM): 0%; % Inhibition ([1]; PPS 3000, 3.33 nM): 26%; % Inhibition ([1]; PPS 3000, 10.0 nM): 77%; % Inhibition ([1]; PPS 3000, 30.0 nM): 94% |
| 398120 (eG*eT*dT*d[5mC]*dA*dA*dG*d[5mC]*dG*dG*d[5mC]*d[5mC]*eT*eA) [compound 398120] | – | – | % Inhibition ([1]; PPS 198, 1.11 nM): 0%; % Inhibition ([1]; PPS 198, 3.33 nM): 31%; % Inhibition ([1]; PPS 198, 10.0 nM): 80%; % Inhibition ([1]; PPS 198, 30.0 nM): 96%; % Inhibition ([1]; PPS 3000, 1.11 nM): 0%; % Inhibition ([1]; PPS 3000, 3.33 nM): 35%; % Inhibition ([1]; PPS 3000, 10.0 nM): 79%; % Inhibition ([1]; PPS 3000, 30.0 nM): 93% |
| 400339 (antisense eT*eG*dG*dT*d[5mC]*d[5mC]*dT*d[5mC]*dA*dG*dG*dG*eA*eA) [compound 400339] | 0% | – | – |
| 400340 (antisense e[5mC]*eT*dG*dG*dT*d[5mC]*d[5mC]*dT*d[5mC]*dA*dG*dG*eG*eA) [compound 400340] | 0% | – | – |
| 400341 (antisense eG*e[5mC]*dT*dG*dG*dT*d[5mC]*d[5mC]*dT*d[5mC]*dA*dG*eG*eG) [compound 400341] | 0% | – | – |
| 400342 (antisense eG*eT*dG*d[5mC]*dT*dG*dG*dG*dG*dG*dG*d[5mC]*eA*eG) [compound 400342] | 0% | – | – |
| 400343 (antisense eG*eG*dT*dG*d[5mC]*dT*dG*dG*dG*dG*dG*dG*e[5mC]*eA) [compound 400343] | 0% | – | – |
| 400344 (antisense eG*eG*dG*dT*dG*d[5mC]*dT*dG*dG*dG*dG*dG*eG*e[5mC]) [compound 400344] | 0% | – | – |
| 400345 (antisense eT*eG*dG*dG*dT*dG*d[5mC]*dT*dG*dG*dG*dG*eG*eG) [compound 400345] | 0% | – | – |
| 400346 (antisense eG*eA*dG*d[5mC]*dA*dG*d[5mC]*dT*d[5mC]*dA*dG*d[5mC]*eA*eG) [compound 400346] | 5% | – | – |
| 400347 (antisense eG*eG*dA*dG*d[5mC]*dA*dG*d[5mC]*dT*d[5mC]*dA*dG*e[5mC]*eA) [compound 400347] | 0% | – | – |
| 400348 (antisense eT*eG*dG*dA*dG*d[5mC]*dA*dG*d[5mC]*dT*d[5mC]*dA*eG*e[5mC]) [compound 400348] | 0% | – | – |
| 400349 (antisense e[5mC]*eT*dG*dG*dA*dG*d[5mC]*dA*dG*d[5mC]*dT*d[5mC]*eA*eG) [compound 400349] | 13% | 10-20% | – |
| 400350 (antisense e[5mC]*e[5mC]*d[5mC]*dT*d[5mC]*dA*d[5mC]*d[5mC]*d[5mC]*d[5mC]*d[5mC]*dA*eA*eA) [compound 400350] | 15% | 10-20% | – |
| 400351 (antisense eA*e[5mC]*d[5mC]*d[5mC]*dT*d[5mC]*dA*d[5mC]*d[5mC]*d[5mC]*d[5mC]*d[5mC]*eA*eA) [compound 400351] | 14% | 10-20% | – |
| 400354 (antisense eG*eA*d[5mC]*dA*d[5mC]*d[5mC]*d[5mC]*dT*d[5mC]*dA*d[5mC]*d[5mC]*e[5mC]*e[5mC]) [compound 400354] | 19% | 10-20% | – |

| Substance | % Inhib [2] | % Inhibition Range [2] | other results |
| --- | --- | --- | --- |
| 400355 (antisense eA*eG*dA*d[5mC]*dA*d[5mC]*d[5mC]*d[5mC]*dT*d[5mC]*dA*d[5mC]*e[5mC]*e[5mC]) [compound 400355] | 0% | – | – |
| 400356 (antisense eT*eA*dG*dA*d[5mC]*dA*d[5mC]*d[5mC]*d[5mC]*dT*d[5mC]*dA*e[5mC]*e[5mC]) [compound 400356] | 0% | – | – |
| 400357 (antisense eT*eG*dG*d[5mC]*dA*dG*d[5mC]*dA*dG*dG*dA*dA*eG*e[5mC]) [compound 400357] | 0% | – | – |
| 400358 (antisense eA*eT*dG*dG*d[5mC]*dA*dG*d[5mC]*dA*dG*dG*dA*eA*eG) [compound 400358] | 12% | 10-20% | – |
| 400359 (antisense e[5mC]*eA*dT*dG*dG*d[5mC]*dA*dG*d[5mC]*dA*dG*dG*eA*eA) [compound 400359] | 0% | – | – |
| 400360 (antisense eG*e[5mC]*dA*dT*dG*dG*d[5mC]*dA*dG*d[5mC]*dA*dG*eG*eA) [compound 400360] | 38% | 30-40% | – |
| 400361 (antisense eG*eG*d[5mC]*dA*dG*d[5mC]*dA*dG*dA*dT*dG*dG*e[5mC]*eA) [compound 400361] | 2% | – | – |
| 400362 (antisense e[5mC]*eG*dG*d[5mC]*dA*dG*d[5mC]*dA*dG*dA*dT*dG*eG*e[5mC]) [compound 400362] | 16% | 10-20% | – |
| 400363 (antisense e[5mC]*e[5mC]*dG*dG*d[5mC]*dA*dG*d[5mC]*dA*dG*dA*dT*eG*eG) [compound 400363] | 8% | – | – |
| 400364 (antisense eT*e[5mC]*d[5mC]*dG*dG*d[5mC]*dA*dG*d[5mC]*dA*dG*dA*eT*eG) [compound 400364] | 0% | – | – |
| 400365 (antisense e[5mC]*eT*d[5mC]*d[5mC]*dG*dG*d[5mC]*dA*dG*d[5mC]*dA*dG*eA*eT) [compound 400365] | 25% | 20-30% | – |
| 400366 (antisense eG*e[5mC]*dT*d[5mC]*d[5mC]*dG*dG*d[5mC]*dA*dG*d[5mC]*dA*eG*eA) [compound 400366] | 15% | 10-20% | – |
| 400367 (antisense eG*eG*d[5mC]*dT*d[5mC]*d[5mC]*dG*dG*d[5mC]*dA*dG*d[5mC]*eA*eG) [compound 400367] | 12% | 10-20% | – |
| 400368 (antisense e[5mC]*eG*dG*d[5mC]*dT*d[5mC]*d[5mC]*dG*dG*d[5mC]*dA*dG*e[5mC]*eA) [compound 400368] | 11% | 10-20% | – |
| 400369 (antisense e[5mC]*e[5mC]*dG*dG*d[5mC]*dT*d[5mC]*d[5mC]*dG*dG*d[5mC]*dA*eG*e[5mC]) [compound 400369] | 0% | – | – |
| 400370 (antisense eG*e[5mC]*d[5mC]*dG*dG*d[5mC]*dT*d[5mC]*d[5mC]*dG*dG*d[5mC]*eA*eG) [compound 400370] | 13% | 10-20% | – |
| 400371 (antisense eA*eG*dT*dT*dA*d[5mC]*dA*dA*dA*dA*dG*d[5mC]*eA*eA) [compound 400371] | 0% | – | – |
